SMILES strings stand for the structures.

From patent US11046660B2, “Compounds and their use as PDE4 activators” (MIRONID LIMITED, priority 2016, dated 2021) come the findings set out here.

One test concerns the target T1, full-length human PDE4D5 (Homo sapiens, UniProt Q08499).
T1 construct: stably expressed the full-length human PDE4D5, PDE4A4 and PDE4B1 long isoforms; made in house; cytosol fraction of cell lysate
Nature of the test: PDE4D5 long form enzyme activation radio-assay (Experiment 1, Protocol A or B). Particulars: for activation at 30 µM: mean % increase in counts over basal activity. The format is biochemical. An excerpt:
(§1) Experiment 1: Identification of PDE4 Long Form Activators of the Present Invention Using Full-Length Human PDE4 Isoforms PDE4D5, PDE4A4, PDE4B1 and PDE4B2
(§2) HEK 293 cells were transfected with pDEST™ PDE4 expression vectors using Lipofectamine LTX/Plus reagent (Invitrogen) as outlined by the manufacturer and clonal isolates expanded to obtain cell lines that stably expressed the full-length human PDE4D5, PDE4A4 and PDE4B1 long isoforms and the full length human PDE4B2 short isoform. These were called the HEK-PDE4D5, HEK-PDE4A4, HEK-PDE4B1 and HEK-PDE4B2 cell lines, respectively.
(§3) HEK-PDE4D5 cells were seeded out in 100 mm plates and incubated at 37° C. in an atmosphere of 5% CO2, 95% air. Cell lysates were prepared using KHEM buffer [50 mM KCl, 10 mM EGTA, 50 mM HEPES (pH 7.2), 1.92 mM MgCl2].
(§4) To prepare the cell lysates, the 100 mm plates containing the cells were placed on ice and washed with ice-cold PBS (phosphate buffered saline, pH 7.4). KHEM buffer (500 μl) was added to the cells. Cells were then scraped off the plate and triturated using a needle (BD Microlance™ 0.8, 40 mm). The lysed cells were then centrifuged at 2000 rpm for 10 minutes to remove cell debris and the supernatant (cell lysate containing recombinant PDE4D5) was transferred to a fresh tube and kept on ice.
(§5) The cell lysate containing recombinant PDE4D5 was transferred into a centrifuge tube and placed into an ultracentrifuge (BECKMAN COULTER) and spun at high speed (100,000 g) for 30 minutes at 4° C. The cytosol fraction was then collected and its protein amount determined using a BCA protein assay.
(§6) PDE assays were performed using a final concentration of 10 mM Tris/5 mM MgCl2 and 1 μM [^3H]-cAMP (Perkin Elmer) plus PDE4D5 cell lysate cytosol fraction, containing over-expressed PDE4D5, with and without test compound. Incubations were performed at 30° C. for 5 minutes. The samples were then placed in a boiling water bath for 2 minutes to denature the PDE enzyme, and returned to ice. Samples were allowed to cool for 10 min after which snake venom 5′-nucleotidase (25 μl, 1 mg/ml; Sigma) was added. The tubes were vortexed and incubated in a water bath at 30° C. for 10 minutes, to attain conversion of [^3H]-5′-AMP to [^3H]-adenosine, and then placed on ice. Dowex ion exchange resin (Sigma) prepared as a 1:1 Dowex: water stock was thoroughly re-suspended and diluted 2:1 with ethanol. The resulting Dowex suspension (0.4 ml) was added to each tube. Tubes were vortexed to mix and then incubated on ice for at least 15 minutes before a final vortex. The Dowex resin was pelleted by centrifugation at 13,000 g at 4° C. for 3 minutes and 150 μl of the supernatant was removed to an Eppendorf tube containing 1 ml of ScintiSafe3 scintillation fluid (Fisher). Tubes were vortexed thoroughly to mix and the recovered [^3H]-adenosine was quantified by measuring counts over 1 minute in a scintillation counter.
(§7) The % increase in counts in the presence of test compound at a particular concentration indicates the % increase in enzyme activity at that concentration.
(§8) PDE assays were performed in thin walled V-bottomed 96-well plates. The assays were performed at a final concentration of 10 mM Tris/5 mM MgCl2 plus PDE4D5 cell lysate cytosol fraction, containing over-expressed PDE4D5, with and without test compound. The lysate/compound mix were incubated together for 15 min at room temperature on an orbital shaker prior to addition of [^3H] cAMP (final concentration 1 μM [^3H] cAMP; Perkin Elmer) to a final volume of 50 μl per reaction. The reactions were then incubated for 10 minutes at 30° C., terminated by heating for 2 min at 95° C. and allowed to cool. Snake venom (12.5 μl of 1 mg/ml; Crotalus atrox, Sigma) was then added and the plates were agitated and incubated for a further 15 minutes at 30° C. […]

The next test addresses T2, full-length human PDE4B2 (Homo sapiens, UniProt Q07343).
T2 construct: and the full length human PDE4B2 short isoform; made in house; cytosol fraction of cell lysate
Nature of the test: PDE4B2 short form enzyme activation radio-assay (Experiment 1, Protocol A or B). The format is biochemical. To be noted: for activation at 30 µM: mean % increase in counts over basal activity.
From the text: as §1, §2, §3, §4, §5, §6, §7, §8

T2 sequence (Q07343 1-564 isoform Q07343-2): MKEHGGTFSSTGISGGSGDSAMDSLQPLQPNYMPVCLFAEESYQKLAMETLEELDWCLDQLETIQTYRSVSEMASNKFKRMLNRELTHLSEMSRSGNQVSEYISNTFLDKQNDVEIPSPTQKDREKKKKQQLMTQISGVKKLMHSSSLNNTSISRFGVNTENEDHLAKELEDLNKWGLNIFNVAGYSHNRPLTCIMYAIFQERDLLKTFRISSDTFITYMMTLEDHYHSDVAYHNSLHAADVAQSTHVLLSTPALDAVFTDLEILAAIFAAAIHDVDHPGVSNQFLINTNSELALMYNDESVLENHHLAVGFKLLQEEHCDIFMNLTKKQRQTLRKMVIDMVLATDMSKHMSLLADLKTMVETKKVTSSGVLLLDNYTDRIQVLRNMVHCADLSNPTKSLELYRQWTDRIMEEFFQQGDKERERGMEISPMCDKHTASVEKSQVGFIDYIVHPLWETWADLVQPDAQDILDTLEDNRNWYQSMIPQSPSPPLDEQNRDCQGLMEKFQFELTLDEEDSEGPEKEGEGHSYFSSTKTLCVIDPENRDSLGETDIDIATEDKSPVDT
T1 sequence (Q08499 1-745 isoform Q08499-6): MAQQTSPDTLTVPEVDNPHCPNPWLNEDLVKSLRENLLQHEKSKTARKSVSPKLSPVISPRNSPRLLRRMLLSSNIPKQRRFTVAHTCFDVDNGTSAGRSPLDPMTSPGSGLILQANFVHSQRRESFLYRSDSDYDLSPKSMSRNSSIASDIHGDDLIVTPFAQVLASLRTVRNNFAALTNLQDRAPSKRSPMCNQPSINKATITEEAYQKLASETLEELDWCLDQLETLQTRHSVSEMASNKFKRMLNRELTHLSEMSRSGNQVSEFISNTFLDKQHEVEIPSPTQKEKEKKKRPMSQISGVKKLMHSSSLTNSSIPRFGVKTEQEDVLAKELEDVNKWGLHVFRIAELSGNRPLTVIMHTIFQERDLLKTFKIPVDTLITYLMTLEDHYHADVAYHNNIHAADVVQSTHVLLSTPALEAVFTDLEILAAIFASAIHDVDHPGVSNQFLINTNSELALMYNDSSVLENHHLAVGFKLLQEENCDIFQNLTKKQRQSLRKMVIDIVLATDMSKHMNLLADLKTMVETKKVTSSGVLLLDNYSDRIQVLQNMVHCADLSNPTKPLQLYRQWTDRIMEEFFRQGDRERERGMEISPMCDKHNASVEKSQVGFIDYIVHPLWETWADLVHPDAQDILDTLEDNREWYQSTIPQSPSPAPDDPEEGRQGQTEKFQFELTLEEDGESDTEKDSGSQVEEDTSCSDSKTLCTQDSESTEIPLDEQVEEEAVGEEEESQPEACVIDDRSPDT

Take `CCOC(=O)c1cc(-c2ccc(Cl)cc2)nn1CC(=O)NCc1cccc(F)c1` [Example 23, Ethyl 3-(4-chlorophenyl)-1-{[(3-fluorobenzyl)carbamoyl]methyl}-1H-pyrazole-5-carboxylate]: the activation at 30 µM on full-length human PDE4D5 (Protocol B) was 93.7%.
On to `COCCNC(=O)c1nc(-c2ccc(Cl)c(F)c2)nn1CC(=O)NCc1cccc(OC)c1` [Example 21, 3-(4-chloro-3-fluorophenyl)-1-{[(3-methoxybenzyl)carbamoyl]methyl}-N-(2-methoxyethyl)-1H-1,2,4-triazole-5-carboxamide], for which the activation at 30 µM at full-length human PDE4D5 (Protocol B) amounted to 105%.
On to `CNC(=O)c1cc(-c2ccc(Cl)c(F)c2)nn1CC(=O)NCc1cccc(F)c1` [Example 26, 3-(4-chloro-3-fluorophenyl)-1-{[(3-fluorobenzyl)carbamoyl]methyl}-N-methyl-1H-pyrazole-5-carboxamide], for which the activation at 30 µM at full-length human PDE4B2 (Protocol B) worked out at 17.1%; on full-length human PDE4D5 (Protocol B), 38.2%.
As for `CCOC(=O)c1nc(-c2ccc(Cl)c(F)c2)nn1CC(=O)NCc1ccccc1` [Example 2, Ethyl 1-[(benzylcarbamoyl)methyl]-3-(4-chloro-3-fluorophenyl)-1H-1,2,4-triazole-5-carboxylate], the activation at 30 µM is -2.5% at full-length human PDE4B2 (Protocol A) and 92.9% at full-length human PDE4D5 (Protocol A). The “activation of PDE4 short form PDE4B2 (in words)” value on full-length human PDE4B2 (Protocol A, FIG. 1(b)) is “lack of activation”. The “activation of PDE4 long form PDE4D5 (in words)” value on full-length human PDE4D5 (Protocol A, FIG. 1(a)) was “dose dependent activation”.
Consider `COC(=O)c1nc(-c2ccc(Cl)c(F)c2)nn1CC(=O)NCc1ccccc1` [Example 3, Methyl 1-[(benzylcarbamoyl)methyl]-3-(4-chloro-3-fluorophenyl)-1H-1,2,4-triazole-5-carboxylate], for which the activation at 30 µM at full-length human PDE4B2 (Protocol A) is -0.9%; on full-length human PDE4D5 (Protocol A), 62.6%.
As to `CCc1nc(-c2ccc(Cl)c(F)c2)nn1CC(=O)NCc1cnc[nH]1` [Example 29, N-[(1H-imidazol-5-yl)methyl]-2-[3-(4-chloro-3-fluorophenyl)-5-ethyl-1H-1,2,4-triazol-1-yl]acetamide], the activation at 30 µM on full-length human PDE4D5 (Protocol B) is 31.9%.
Turning to `CCNC(=O)c1nc(-c2ccc(Cl)c(F)c2)nn1CC(=O)NCc1cccc(F)c1` [Example 19, 3-(4-chloro-3-fluorophenyl)-1-{[(3-fluorobenzyl)carbamoyl]methyl}-N-ethyl-1H-1,2,4-triazole-5-carboxamide], the activation at 30 µM at full-length human PDE4D5 (Protocol B) was determined as 84.1%.
On to `CCc1nc(-c2ccc(Cl)c(F)c2)cn1CC(=O)NCc1cc(Cl)cc(Cl)c1` [Example 30, 2-[4-(4-chloro-3-fluorophenyl)-2-ethyl-1H-imidazol-1-yl]-N-(3,5-dichlorobenzyl) acetamide], for which the activation at 30 µM at full-length human PDE4D5 (Protocol B) was 87.6%.
The same measure, in the same setting: under `O=C(Cn1nc(-c2ccc(Cl)c(F)c2)nc1C(=O)NC1CCCCC1)NCc1cccc(F)c1` [Example 22, 3-(4-chloro-3-fluorophenyl)-1-{[(3-fluorobenzyl)carbamoyl]methyl}-N-cyclohexyl-1H-1,2,4-triazole-5-carboxamide] stands 53.1%; under `COc1cccc(CNC(=O)Cn2nc(-c3ccc(Cl)c(F)c3)nc2C(=O)NC(C)C)c1` [Example 17, 3-(4-chloro-3-fluorophenyl)-1-{[(3-methoxybenzyl)carbamoyl]methyl}-N-isopropyl-1H-1,2,4-triazole-5-carboxamide], 81.1%; under `COc1cccc(CNC(=O)Cn2nc(-c3ccc(Cl)c(F)c3)nc2C(=O)N(C)C)c1` [Example 18, 3-(4-chloro-3-fluorophenyl)-1-{[(3-methoxybenzyl)carbamoyl]methyl}-N,N-dimethyl-1H-1,2,4-triazole-5-carboxamide], 83.9%.
Regarding `COC(=O)c1cc(-c2cccc(OC)c2)nn1CC(=O)NCc1cccc(F)c1` [Example 24, Methyl 1-{[(3-fluorobenzyl)carbamoyl]methyl}-3-(3-methoxyphenyl)-1H-pyrazole-5-carboxylate], the activation at 30 µM at full-length human PDE4D5 (Protocol B) amounted to 87.4%.
